Source: patent publication US7183299B2 (priority 2001, dated 2007)

Experiments:
[1] = system: downy mildew (Plasmopara viticola) on grape; conditions: in vivo
[2] = system: late blight on tomato; type: in vivo, Plasmopara viticola; conditions: tomato (Hofuku), therapeutic effect, sprayed after inoculation, active ingredient 100 ppm, disease severity 7 days after inoculation

SMILES	Control value (%) [1]	Control value (%) [2]
CCCC(=O)Nc1cccc(CON=C(c2ccccc2)c2nnnn2C)n1 [(1)-6]	70%	90%
CC(C)C(=O)Nc1cccc(CON=C(c2ccccc2)c2nnnn2C)n1 [(1)-7]	100%	100%
CCCCC(=O)Nc1cccc(CON=C(c2ccccc2)c2nnnn2C)n1 [(1)-8]	70%	90%
CCCCCC(=O)Nc1cccc(CON=C(c2ccccc2)c2nnnn2C)n1 [(1)-12, (Z)-(1-methyltetrazol-5-yl)phenylmethanoneoxime 0-(6-(hexanoylamino)pyridin-2-yl)methyloxime]	100%	100%
Cn1nnnc1C(=NOCc1cccc(NC(=O)CC(C)(C)C)n1)c1ccccc1 [(1)-16]	70%	100%
CCCCCCC(=O)Nc1cccc(CON=C(c2ccccc2)c2nnnn2C)n1 [(1)-18]	100%	100%
Cn1nnnc1C(=NOCc1cccc(NC(=O)C2CC2)n1)c1ccccc1 [(1)-21]	70%	90%
CC(C)C(=O)Nc1nc(CON=C(c2ccccc2)c2nnnn2C)cs1 [(2)-7]	90%	100%
Cn1nnnc1C(=NOCc1csc(NC(=O)C(C)(C)C)n1)c1ccccc1 [(2)-11]	100%	100%
CCCCCC(=O)Nc1nc(CON=C(c2ccccc2)c2nnnn2C)cs1 [(2)-12]	90%	100%
Cn1nnnc1C(=NOCc1csc(NC(=O)CC(C)(C)C)n1)c1ccccc1 [(2)-16]	90%	100%
CCOC(=O)Nc1cccc(CON=C(c2ccccc2)c2nnnn2C)n1 [(3)-2]	70%	90%
CCCOC(=O)Nc1cccc(CON=C(c2ccccc2)c2nnnn2C)n1 [(3)-3]	90%	100%
CC(C)OC(=O)Nc1cccc(CON=C(c2ccccc2)c2nnnn2C)n1 [(3)-4]	90%	100%
CCCCOC(=O)Nc1cccc(CON=C(c2ccccc2)c2nnnn2C)n1 [(3)-5]	100%	100%
Cn1nnnc1C(=NOCc1cccc(NC(=O)OC(C)(C)C)n1)c1ccccc1 [(3)-8]	100%	100%
CCCCCOC(=O)Nc1cccc(CON=C(c2ccccc2)c2nnnn2C)n1 [(3)-9]	100%	100%
CCCCCCOC(=O)Nc1cccc(CON=C(c2ccccc2)c2nnnn2C)n1 [(3)-15]	100%	100%
CCCCCCCOC(=O)Nc1cccc(CON=C(c2ccccc2)c2nnnn2C)n1 [(3)-16]	100%	100%
Cn1nnnc1C(=NOCc1cccc(NC(=O)OCc2ccccc2)n1)c1ccccc1 [(3)-18]	100%	100%
CCC(C)(C)OC(=O)Nc1cccc(CON=C(c2ccccc2)c2nnnn2C)n1 [(3)-21]	70%	100%
Cn1nnnc1C(=NOCc1cccc(NC(=O)OC2CCCC2)n1)c1ccccc1 [(3)-22]	100%	100%

SMILES	Control value (%) [1]	Control value (%) [2]
Cn1nnnc1C(=NOCc1cccc(NC(=O)OC2CCCCC2)n1)c1ccccc1 [(3)-23]	80%	100%
CCCCCCOC(=O)Nc1nc(CON=C(c2ccccc2)c2nnnn2C)cs1 [(4)-15]	70%	80%
Cn1nnnc1C(=NOCc1csc(NC(=O)OCc2ccccc2)n1)c1ccccc1 [(4)-18]	70%	90%
Cn1nnnc1C(=NOCc1cccc(NC(=O)Cc2ccccc2)n1)c1ccccc1 [(5)-12]	100%	100%
Cn1nnnc1C(=NOCc1cccc(NC(=O)c2ccccc2)n1)c1ccccc1 [(5)-14]	90%	100%
CCOCC(=O)Nc1nc(CON=C(c2ccccc2)c2nnnn2C)cs1 [(6)-2]	70%	80%
CSCCC(=O)Nc1nc(CON=C(c2ccccc2)c2nnnn2C)cs1 [(6)-6]	70%	80%
C=C(C)C(=O)Nc1nc(CON=C(c2ccccc2)c2nnnn2C)cs1 [(6)-7]	100%	100%
CCCOCCC(=O)Nc1nc(CON=C(c2ccccc2)c2nnnn2C)cs1 [(6)-15]	70%	90%
CCCC(=O)Nc1cccc(CON=C(c2ccc(Cl)cc2)c2nnnn2C)n1 [(7)-1]	70%	80%
Cn1nnnc1C(=NOCc1cccc(NC(=O)C2CC2)n1)c1ccc(Cl)cc1 [(7)-3]	80%	80%
COc1ccc(C(=NOCc2cccc(NC(=O)C3CC3)n2)c2nnnn2C)cc1 [(7)-11]	70%	80%
CCCCCC(=O)Nc1cccc(CON=C(c2ccc(C)cc2)c2nnnn2C)n1 [(7)-12]	100%	100%
CC(C)C(=O)Nc1nc(CON=C(c2ccc(Cl)cc2)c2nnnn2C)cs1 [(8)-2]	70%	90%
Cn1nnnc1C(=NOCc1csc(NC(=O)C(C)(C)C)n1)c1cccc(F)c1 [(8)-7]	70%	80%
COc1ccc(C(=NOCc2csc(NC(=O)C(C)(C)C)n2)c2nnnn2C)cc1 [(8)-10]	70%	90%
Cn1nnnc1C(=NOCc1csc(NC(=O)C(C)(C)C)n1)c1ccc(Cl)cc1 [(8)-17]	90%	80%
Cn1nnnc1C(=NOCc1cccc(NC(=O)OC(C)(C)C)n1)c1cccc(F)c1 [(9)-1]	100%	100%
CC(C)OC(=O)Nc1cccc(CON=C(c2ccc(F)cc2)c2nnnn2C)n1 [(9)-2]	70%	80%
Cn1nnnc1C(=NOCc1cccc(NC(=O)OC(C)(C)C)n1)c1ccc(F)cc1 [(9)-3]	70%	90%
Cc1ccc(C(=NOCc2cccc(NC(=O)OC(C)(C)C)n2)c2nnnn2C)cc1 [(9)-4]	100%	100%
CCCCCOC(=O)Nc1cccc(CON=C(c2ccc(C)cc2)c2nnnn2C)n1 [(9)-5]	100%	100%

SMILES	Control value (%) [1]	Control value (%) [2]
CCCOC(=O)Nc1cccc(CON=C(c2cccc(F)c2)c2nnnn2C)n1 [(9)-6]	70%	100%
CCCCCC(=O)Nc1cccc(CON=C(c2cccc(C)c2)c2nnnn2C)n1 [(9)-7]	100%	100%
CCC(C)(C)OC(=O)Nc1cccc(CON=C(c2ccc(C)cc2)c2nnnn2C)n1 [(9)-9]	100%	100%
CCCCCOC(=O)Nc1cccc(CON=C(c2ccccc2C)c2nnnn2C)n1 [(9)-10]	100%	100%
CCCCOC(=O)Nc1cccc(CON=C(c2ccccc2C)c2nnnn2C)n1 [(9)-11]	100%	100%
CC(=O)Nc1cccc(CON=C(c2ccccc2)n2nnnc2C)n1 [(11)-4]	70%	80%
CCC(=O)Nc1cccc(CON=C(c2ccccc2)n2nnnc2C)n1 [(11)-5]	70%	80%
CCCC(=O)Nc1cccc(CON=C(c2ccccc2)n2nnnc2C)n1 [(11)-6]	70%	80%
Cc1nnnn1C(=NOCc1cccc(NC(=O)C(C)C)n1)c1ccccc1 [(11)-7]	100%	100%
CCCCC(=O)Nc1cccc(CON=C(c2ccccc2)n2nnnc2C)n1 [(11)-8]	100%	100%
Cc1nnnn1C(=NOCc1cccc(NC(=O)C(C)(C)C)n1)c1ccccc1 [(11)-11]	70%	80%
CCCCCC(=O)Nc1cccc(CON=C(c2ccccc2)n2nnnc2C)n1 [(11)-12, (Z)-(5-methyltetrazol-1-yl)phenylmethanoneoxime 0-(6-(hexanoylamino)pyridin-2-yl)methyloxime]	100%	100%
Cc1nnnn1C(=NOCc1cccc(NC(=O)C2CC2)n1)c1ccccc1 [(11)-21]	70%	90%
CCCC(=O)Nc1nc(CON=C(c2ccccc2)n2nnnc2C)cs1 [(12)-6]	80%	100%
Cc1nnnn1C(=NOCc1csc(NC(=O)C(C)C)n1)c1ccccc1 [(12)-7]	90%	100%
CCCCCC(=O)Nc1nc(CON=C(c2ccccc2)n2nnnc2C)cs1 [(12)-12, (Z)-(5-methyltetrazol-1-yl)phenylmethanoneoxime 0-(2-(n-hexanoylamino)thiazol-4-yl)methyloxime]	90%	100%
CCCCCCC(=O)Nc1nc(CON=C(c2ccccc2)n2nnnc2C)cs1 [(12)-18]	90%	100%
CCCCOC(=O)Nc1cccc(CON=C(c2ccccc2)n2nnnc2C)n1 [(13)-5]	70%	90%
Cc1nnnn1C(=NOCc1cccc(NC(=O)OC(C)(C)C)n1)c1ccccc1 [(13)-8]	90%	100%
CCCCCOC(=O)Nc1cccc(CON=C(c2ccccc2)n2nnnc2C)n1 [(13)-9]	100%	100%
CCCCCCOC(=O)Nc1cccc(CON=C(c2ccccc2)n2nnnc2C)n1 [(13)-15]	80%	90%
Cc1nnnn1C(=NOCc1cccc(NC(=O)OC2CCCC2)n1)c1ccccc1 [(13)-21]	80%	100%
